Results as given in patent publication US5382586A, “Aryl (or heteroaryl)piperazinylalkylazole derivatives, their preparation and their application as medicaments” (priority 1991, dated 1995).

Key:
[1] = test system: norepinephrine-induced death in rats; assay: norepinephrine antagonism test in rats (antihypertensive activity); assay type: in vivo, rat (male Wister); conditions: for Activity % (norepinephrine antagonistic antihypertensive activity): D = 40 mg/kg, i.p., rat, norepinephrine 1.25 mg/kg i.v. after 2 hours; for ED50: Rattus norvegicus, ip, 2 h, read-out: ED50 (norepinephrine antagonistic antihypertensive activity)
Description: This activity is manifested by the protection of animals before death induced by an intravenous injection of norepinephrine, which produces a hypertensive attack in rats.
Male Wister rats weighing 200 grammes are used in this test. The product to be studied is administered intraperitoneally and 1.25 mg/kg (i.v.) of norepinephrine are administered after 2 hours.
The initial administration dose in these studies is 40 mg/kg (i.p.).

[2] = test system: conditioned avoidance response in male Wistar rats; assay: conditioned avoidance response test (inhibition of the conditioned avoidance response; anxiolytic/tranquillising activity); assay type: in vivo, rat (male Wistar); conditions: rat; for Activity % (inhibition of the conditioned avoidance response): D = 80 mg/kg, p.o., 45 min before test; for ED50: po, 0.75 h
Description: Male Wistar rats weighing 200 grammes which have been trained to jump over a barrier in an avoidance and escape cage (shuttle box) (Letica, reference LI 910 and LI 2700) within 30 seconds of their being introduced into the cage are used in this test.
The products having an anxiolytic or tranquillising activity suppress the conditioned avoidance response.
Training: day one: 11 trials at 3 minute intervals. Electric shock to the paws after 30 seconds (5 mA, 0.1 s, 10 s).
Days two and three: 2 trials per day, with the selected rats only [sum of the scores for the first day (with the exception of the first trial)>14].
Test day: groups formed by selected rats. Oral administration of the product or the vehicle 45 minutes before the start of the study.

Cc1nc(-c2ccccc2)c(-c2ccccc2)n1CCCCN1CCN(c2ncccn2)CC1 [Example 10]
Activity % (norepinephrine antagonistic antihypertensive activity) [1]: 0% | Activity % (inhibition of the conditioned avoidance response) [2]: 38%

COc1ccccc1N1CCN(CCCCn2cc(Cl)cn2)CC1 [Example 29]
Activity % (norepinephrine antagonistic antihypertensive activity) [1]: 100% | ED50 [1]: 0.46 mg/kg | Activity % (inhibition of the conditioned avoidance response) [2]: 100% | ED50 [2]: 8.9 mg/kg

Cc1nc(Cl)c(Cl)n1CCCCN1CCN(c2nsc3ccccc23)CC1 [Example 44]
Activity % (norepinephrine antagonistic antihypertensive activity) [1]: 100% | Activity % (inhibition of the conditioned avoidance response) [2]: 95%

c1cnc(N2CCN(CCCCn3nc4ccccc4n3)CC2)nc1 [Example 24]
Activity % (norepinephrine antagonistic antihypertensive activity) [1]: 50% | Activity % (inhibition of the conditioned avoidance response) [2]: 87%

c1cnc(N2CCN(CCCCn3c4ccccc4c4ccccc43)CC2)nc1 [Example 2]
Activity % (norepinephrine antagonistic antihypertensive activity) [1]: 0% | Activity % (inhibition of the conditioned avoidance response) [2]: 37%

COc1ccccc1N1CCN(CCCNc2cc(C)nn2C)CC1 [Example 45, 1,3-dimethyl-5-{3-[4-(2-methoxyphenyl)-1-piperazinyl]-propylamino}-1H-pyrazole]
Activity % (norepinephrine antagonistic antihypertensive activity) [1]: 100% | ED50 [1]: 2.8 mg/kg | Activity % (inhibition of the conditioned avoidance response) [2]: 100%

Cn1ccnc1N1CCN(CCCCn2cccn2)CC1 [Example 40]
Activity % (norepinephrine antagonistic antihypertensive activity) [1]: 0% | Activity % (inhibition of the conditioned avoidance response) [2]: 28%

c1ccc(N2CCN(CCCCn3cccc3)CC2)cc1 [Example 34]
Activity % (norepinephrine antagonistic antihypertensive activity) [1]: 100% | ED50 [1]: 10 mg/kg | Activity % (inhibition of the conditioned avoidance response) [2]: 96% | ED50 [2]: 23.7 mg/kg

Cc1cc2ncn(CCCCN3CCN(c4ncccn4)CC3)c2cc1C [Example 26]
Activity % (norepinephrine antagonistic antihypertensive activity) [1]: 0% | Activity % (inhibition of the conditioned avoidance response) [2]: 88% | ED50 [2]: 34.5 mg/kg

c1cnc(N2CCN(CCCCn3cnc4ccccc43)CC2)nc1 [Example 16, 1-{4-[4-(2-pyrimidinyl)-1-piperazinyl]-butyl}-1H-benzimidazole]
Activity % (norepinephrine antagonistic antihypertensive activity) [1]: 0% | Activity % (inhibition of the conditioned avoidance response) [2]: 100% | ED50 [2]: 6.1 mg/kg

c1cnc(N2CCN(CCCCn3cnc4ncccc43)CC2)nc1 [Example 18, 1-{4-[4-(2-pyrimidinyl)-1-piperazinyl]-butyl}-1H-imidazo[4,5-b]pyridine]
Activity % (norepinephrine antagonistic antihypertensive activity) [1]: 100% | ED50 [1]: 3.97 mg/kg | Activity % (inhibition of the conditioned avoidance response) [2]: 91% | ED50 [2]: 25.6 mg/kg

CCc1nccn1CCCCN1CCN(c2ncccn2)CC1 [Example 12]
Activity % (norepinephrine antagonistic antihypertensive activity) [1]: 0% | Activity % (inhibition of the conditioned avoidance response) [2]: 46%

Clc1cnn(CCCCN2CCN(c3ccccc3)CC2)c1 [Example 35, 4-chloro-1-[4-(4-phenyl-1-piperazinyl)-butyl]-1H-pyrazole]
Activity % (norepinephrine antagonistic antihypertensive activity) [1]: 100% | ED50 [1]: 4.1 mg/kg | Activity % (inhibition of the conditioned avoidance response) [2]: 100% | ED50 [2]: 20.7 mg/kg

Cc1cc(C(F)(F)F)n(CCCCN2CCN(c3ncccn3)CC2)n1 [Example 7]
Activity % (norepinephrine antagonistic antihypertensive activity) [1]: 0% | Activity % (inhibition of the conditioned avoidance response) [2]: 74% | ED50 [2]: 29 mg/kg

COC(=O)c1cn(CCCCN2CCN(c3ncccn3)CC2)cn1 [Example 14]
Activity % (norepinephrine antagonistic antihypertensive activity) [1]: 0% | Activity % (inhibition of the conditioned avoidance response) [2]: 38%

COc1cccc(N2CCN(CCCCn3cc(Cl)cn3)CC2)c1 [Example 31]
Activity % (norepinephrine antagonistic antihypertensive activity) [1]: 0% | ED50 [1]: 8.9 mg/kg | Activity % (inhibition of the conditioned avoidance response) [2]: 100% | ED50 [2]: 20.8 mg/kg

c1ccc(-c2nc(-c3ccccc3)n(CCCCN3CCN(c4ncccn4)CC3)c2-c2ccccc2)cc1 [Example 9]
Activity % (norepinephrine antagonistic antihypertensive activity) [1]: 0% | Activity % (inhibition of the conditioned avoidance response) [2]: 8%

c1ccc(-c2nccn2CCCCN2CCN(c3ncccn3)CC2)cc1 [Example 13]
Activity % (norepinephrine antagonistic antihypertensive activity) [1]: 0% | Activity % (inhibition of the conditioned avoidance response) [2]: 70% | ED50 [2]: 17.1 mg/kg

c1cnc(N2CCN(CCCCn3cncn3)CC2)nc1 [Example 23]
Activity % (norepinephrine antagonistic antihypertensive activity) [1]: 50% | Activity % (inhibition of the conditioned avoidance response) [2]: 100% | ED50 [2]: 6.3 mg/kg

COc1ccc(N2CCN(CCCCn3cccc3)CC2)cc1 [Example 32]
Activity % (norepinephrine antagonistic antihypertensive activity) [1]: 0% | Activity % (inhibition of the conditioned avoidance response) [2]: 83% | ED50 [2]: 50 mg/kg

COc1ccc(N2CCN(CCCCn3c(C)nc(Cl)c3Cl)CC2)cc1 [Example 28]
Activity % (norepinephrine antagonistic antihypertensive activity) [1]: 100% | ED50 [1]: 14 mg/kg | Activity % (inhibition of the conditioned avoidance response) [2]: 75% | ED50 [2]: 37.5 mg/kg

c1ccc(-c2ncn(CCCCN3CCN(c4ncccn4)CC3)c2-c2ccccc2)cc1 [Example 8]
Activity % (norepinephrine antagonistic antihypertensive activity) [1]: 0% | Activity % (inhibition of the conditioned avoidance response) [2]: 29%

Clc1ccc2ncn(CCCCN3CCN(c4ncccn4)CC3)c2c1 [Example 22]
Activity % (norepinephrine antagonistic antihypertensive activity) [1]: 0% | Activity % (inhibition of the conditioned avoidance response) [2]: 100% | ED50 [2]: 9.1 mg/kg

Clc1cnn(CCCCN2CCN(c3nsc4ccccc34)CC2)c1 [Example 43]
Activity % (norepinephrine antagonistic antihypertensive activity) [1]: 66% | Activity % (inhibition of the conditioned avoidance response) [2]: 100%

COc1ccc(N2CCN(CCCCn3cc(Cl)cn3)CC2)cc1 [Example 27]
Activity % (norepinephrine antagonistic antihypertensive activity) [1]: 0% | Activity % (inhibition of the conditioned avoidance response) [2]: 88%

Cc1nc2ccccc2n1CCCCN1CCN(c2ncccn2)CC1 [Example 25]
Activity % (norepinephrine antagonistic antihypertensive activity) [1]: 25% | Activity % (inhibition of the conditioned avoidance response) [2]: 52% | ED50 [2]: 61.7 mg/kg

c1cnc(N2CCN(CCCCn3ccc4ccccc43)CC2)nc1 [Example 3]
Activity % (norepinephrine antagonistic antihypertensive activity) [1]: 25% | Activity % (inhibition of the conditioned avoidance response) [2]: 74% | ED50 [2]: 42.8 mg/kg

COc1ccccc1N1CCN(CCCCn2c(C)nc(Cl)c2Cl)CC1 [Example 30]
Activity % (norepinephrine antagonistic antihypertensive activity) [1]: 100% | ED50 [1]: 0.18 mg/kg | Activity % (inhibition of the conditioned avoidance response) [2]: 95% | ED50 [2]: 12.8 mg/kg

NC(=O)c1cnn(CCCCN2CCN(c3ncccn3)CC2)c1 [Example 5, 4-carboxamido-1-{4-[4-(2-pyrimidinyl)-1-piperazinyl]-butyl}-1H-pyrazole]
Activity % (norepinephrine antagonistic antihypertensive activity) [1]: 0% | Activity % (inhibition of the conditioned avoidance response) [2]: 68% | ED50 [2]: 33.5 mg/kg

Clc1cnn(CCCCN2CCN(c3ccccc3Cl)CC2)c1 [Example 37]
Activity % (norepinephrine antagonistic antihypertensive activity) [1]: 100% | ED50 [1]: 1.9 mg/kg | Activity % (inhibition of the conditioned avoidance response) [2]: 86% | ED50 [2]: 29.5 mg/kg

Clc1ccc2c(c1)ncn2CCCCN1CCN(c2ncccn2)CC1 [Example 21]
Activity % (norepinephrine antagonistic antihypertensive activity) [1]: 0% | Activity % (inhibition of the conditioned avoidance response) [2]: 100% | ED50 [2]: 9.3 mg/kg

c1ccc(-c2cn(CCCCN3CCN(c4ncccn4)CC3)cn2)cc1 [Example 15]
Activity % (norepinephrine antagonistic antihypertensive activity) [1]: 0% | Activity % (inhibition of the conditioned avoidance response) [2]: 73% | ED50 [2]: 28 mg/kg

Clc1cccc(N2CCN(CCCCn3cc(Cl)cn3)CC2)c1 [Example 39]
Activity % (norepinephrine antagonistic antihypertensive activity) [1]: 0% | Activity % (inhibition of the conditioned avoidance response) [2]: 100%

O=C(O)c1cnn(CCCCN2CCN(c3ncccn3)CC2)c1 [Example 6, 4-carboxy-1-{4-[4-(2-pyrimidinyl)-1-piperazinyl]-butyl}-1H-pyrazole]
Activity % (norepinephrine antagonistic antihypertensive activity) [1]: 75% | ED50 [1]: 31.7 mg/kg | Activity % (inhibition of the conditioned avoidance response) [2]: 57% | ED50 [2]: 44.3 mg/kg

Cc1nc(Cl)c(Cl)n1CCCCN1CCN(c2ccccc2Cl)CC1 [Example 38]
Activity % (norepinephrine antagonistic antihypertensive activity) [1]: 100% | ED50 [1]: 1.3 mg/kg | Activity % (inhibition of the conditioned avoidance response) [2]: 78%
